Experiments:
[1] = drug concentration in liquid formulations by liquid chromatography / HPLC assay; type: physicochemical
[2] = test system: human coronary artery smooth muscle cell; assay: MTS cytotoxicity assay; type: cell-based; conditions: concentrations up to 30,000.00 nanomolar
Source text: Typically, a control is utilized to determine baseline toxicity.

[3] = test system: human coronary artery smooth muscle cells; conditions: synchronized cells, two percent fetal bovine serum; for effect of addition of the agent on the percent inhibition of rapamycin: topotecan zero to three hundred nanomolar, etoposide zero to eight hundred nanomolar, Panzem zero to 100 micromolar
[4] = porcine drug elution PK study of dual drug eluting coating; type: in vivo; conditions: after eight (8) days of implantation, pig coronary arteries; single layer coating of FIG. 83
Source text: Another critical parameter for the performance of the thrombus resistance of a device coated with cilostazol is the duration of the drug release from the coating. This is of particular significance in the two weeks after device implantation. In the porcine drug elution PK studies of the dual drug eluting coating, both cilostazol and sirolius were slowly released from the coating, resulting in a sustained drug release profile. The purpose of the porcine PK study is to assess the local pharmacokinetics of a drug eluting stent at a given implantation time. Normally three stents are implanted in three different coronary arteries in a pig for a given time point and then retrieved for total drug recovery analysis. The stents are retrieved at predetermined time points; namely, 1, 3 and 8 days. The stents are extracted and the total amount of drug remaining on the stents is determined by analysis utilizing HPLC (high performance liquid chromatography) for total drug amount. The difference between the original amount of drug on the stent and the amount of drug retrieved at a given time represents the amount of drug released in that period. The continuous release of drug into surrounding arterial tissue is what prevents the neointimal growth and restenosis in the coronary artery. A normal plot represents the percentage of total drug released (%, y-axis) vs. time of implantation (day, x-axis). […]

[5] = in vitro release of sirolimus and cilostazol from stent coating; type: physicochemical; conditions: single layer coating of FIG. 83
[6] = test system: human coronary artery smooth muscle cells; assay: anti-proliferative activity in non-synchronized cultured human coronary artery smooth muscle cells stimulated with two percent fetal bovine serum; type: cell-based; conditions: for effect of addition of the agent on the anti-proliferative activity of rapamycin: mycophenolic acid zero to one thousand nanomolar, cladribine zero to nine hundred nanomolar
Source text: The multiple curves represent various concentrations of mycophenolic acid ranging from zero to one thousand nanomolar concentrations.
The multiple curves represent various concentrations of cladribine ranging from zero to nine hundred nanomolar concentrations.

[7] = test system: human smooth muscle cells; assay: Cladribine Example, PDGF-stimulated cell proliferation (cell count), smooth muscle cells; type: cell-based; conditions: from IC50 values
Procedure: To assess the ability of cladribine to prevent cell proliferation, human smooth muscle or endothelial cells (Clonetics, Walkersville, Md.) were seeded at a density of 2000 cells/cm^2 (approximately 3600 cells/well) into each well of 12-well plates and cultured with 1.5 ml of growth medium containing five percent fetal calf serum (FCS). After twenty-four hours, the growth medium was changed and fresh medium containing 10 ng/ml platelet-derived growth factor AB (PDGF AB; LIFE Technologies), as well as various concentrations of cladribine (0.001-10,000 nM) were added with triplicate wells. Medium was replaced with fresh cladribine-containing medium after three days. On day six, cells were detached by trypsinization to yield a cell suspension, lightly centrifuged to pellet and then counted manually using a Neubauer hemocytometer system. Cell viability was assessed by trypan blue exclusion.

cell viability = cell viability assay; type: cell-based
[8] = test system: human coronary artery smooth muscle cell; assay: in vitro cell culture study, coronary artery smooth muscle cell proliferation (trichostatin A); type: cell-based
Source text: FIG. 51 is a graph of the inhibition of coronary artery smooth muscle cells by trichostatin A in a cell culture study.

tumor cell lines = tumor cell lines (Woo et al. 2002); cited from earlier work

CO[C@H]1C[C@@H]2CC[C@@H](C)[C@@](O)(O2)C(=O)C(=O)N2CCCC[C@H]2C(=O)O[C@H]([C@H](C)C[C@@H]2CC[C@@H](OC(=O)C(C)(CO)CO)[C@H](OC)C2)CC(=O)[C@H](C)/C=C(\C)[C@@H](O)[C@@H](OC)C(=O)[C@H](C)C[C@H](C)/C=C/C=C/C=C/1C [CCI-779]
concentration of CCI-779 in the final solution (HPLC assay) ([1]; Vitamin E TPGS, water, ethanol less than two percent): 15000 µg/mL

COc1cc2c(cc1O)CC[C@@H]1[C@@H]2CC[C@]2(C)[C@@H](O)CC[C@@H]12 [Panzem®, 2-methoxyestradiol]
human coronary artery smooth muscle cell survival (MTS assay) [2]: do not reduce human coronary artery smooth muscle cell survival
inhibition of human coronary artery smooth muscle cell proliferation in vitro [3]: extremely effective inhibitor
effect of addition of the agent on the percent inhibition of rapamycin [3]: increases the percent of inhibition of rapamycin alone

O=C1CCc2cc(OCCCCc3nnnn3C3CCCCC3)ccc2N1 [cilostazol, 6[4-(1-cyclohexyl-1H-tetrazol-5-yl)-butoxy]-3,4-dihydro-2-(1H)-quinolinone]
drug remaining in the drug coating [4]: ~80%
in vitro release from coating [5]: ~35%

Nc1nc(Cl)nc2c1ncn2[C@H]1C[C@H](O)[C@@H](CO)O1 [cladribine, 2-chlorodeoxyadenosine]
inhibition of human coronary artery smooth muscle cell proliferation [6]: completely inhibits
effect of addition of the agent on the anti-proliferative activity of rapamycin [6]: increases the percent inhibition of rapamycin alone
potency as inhibitor of smooth muscle cells relative to endothelial cells [7]: approximately twice

COc1cc([C@@H]2c3cc4c(cc3[C@@H](O[C@@H]3O[C@@H]5CO[C@@H](C)O[C@H]5[C@H](O)[C@H]3O)[C@H]3COC(=O)[C@H]23)OCO4)cc(OC)c1O [etoposide]
cytotoxicity in cell viability assay (cell viability; at concentrations up to ten micromolar): non-cytotoxic
effect of addition of the agent on the percent inhibition of rapamycin [3]: increases the percent inhibition of rapamycin alone

COc1c(C)c2c(c(O)c1C/C=C(\C)CCC(=O)O)C(=O)OC2 [mycophenolic acid]
effect of addition of the agent on the anti-proliferative activity of rapamycin [6]: potentiates the anti-proliferative activity of rapamycin

CO[C@H]1C[C@@H]2CC[C@@H](C)[C@@](O)(O2)C(=O)C(=O)N2CCCC[C@H]2C(=O)O[C@H]([C@H](C)C[C@@H]2CC[C@@H](O)[C@H](OC)C2)CC(=O)[C@H](C)/C=C(\C)[C@@H](O)[C@@H](OC)C(=O)[C@H](C)C[C@H](C)/C=C/C=C/C=C/1C [rapamycin]
drug remaining in the drug coating [4]: ~80%
concentration in formulation relative to solubility of sirolimus in water ([1]; 4 mg/ml PEG 200 formulation): four hundred to about one thousand

CC[C@@]1(O)C(=O)OCc2c1cc1n(c2=O)Cc2cc3c(CN(C)C)c(O)ccc3nc2-1 [topotecan]
cytotoxicity in cell viability assay (cell viability; at concentrations up to one micromolar): non-cytotoxic
effect of addition of the agent on the percent inhibition of rapamycin [3]: increases the percent inhibition of rapamycin alone

CC(/C=C/C(=O)NO)=C\[C@@H](C)C(=O)c1ccc(N(C)C)cc1 [trichostatin A]
IC50 ([8]; human coronary artery smooth muscle cell proliferation, read-out: anti-proliferative IC50): ~6 nM
inhibition of human coronary artery smooth muscle cell proliferation ([8]; in vitro cell culture): completely inhibit
anti-proliferative IC50 (tumor cell lines): low nM range
